According to US7781565B2 (priority 2006, dated 2010):

These substances were tested on NCI-60 cell lines.
Format: cell-based, human

Row | Substance | Cell Line (NCI-60 cell line the peptide is associated with) | Cell Line with which the peptide (and its tripeptide motif) is associated | Cell Line (NCI-60 cell line the peptide and its motif are associated with) | Cell Line the peptide is associated with (peptide recovered from phage library selection on this NCI-60 cell line)
1 | RRSGLGD | HCC-2998-Colon | – | – | –
2 | RRSSKQA | – | A549-Lung | – | –
3 | RRVSCDL | – | Hop-62-Lung | – | –
4 | RRVSLVA | – | CCRF-CEM Leukemia | – | –
5 | RSGRVSN | – | – | SK-OV-3-3 Ovarian | –
6 | RSGSSVY | – | H23-Lung | – | –
7 | RSLGSVG | – | – | DU-145 Prostate | –
8 | RSSGLGF | – | Hop-62-Lung | – | –
9 | RSSIAPS | – | Molt-4-Leukemia | – | –
10 | RSSIDVG | – | – | – | NCI/ADR-RES Breast
11 | RSSLGLP | – | H226-Lung | – | –
12 | RSSPVWT | SW620-Colon | – | – | –
13 | RSSSGSG | – | – | – | TK-10 Renal
14 | RSSSSTR | SNB-75 CNS | – | – | –
15 | RSSYAPP | – | – | – | ACHN Renal
16 | RSTLGPS | HT-29 Colon | – | – | –
17 | RSWNAGR | – | – | – | UO31 Renal
18 | RSYPLRS | SW620-Colon | – | – | –
19 | RTGSSDL | – | Hop-92-Lung | – | –
20 | RTWGGRM | – | – | M14 Melanoma | –
21 | RVAAGGL | – | – | – | T-47D Breast
22 | RVARGDR | KM-12C Colon | – | – | –
23 | RVDRGSL | – | – | – | CAIK-1 Renal

Row | Substance | Cell Line (NCI-60 cell line the peptide is associated with) | Cell Line with which the peptide (and its tripeptide motif) is associated | Cell Line (NCI-60 cell line the peptide and its motif are associated with) | Cell Line the peptide is associated with (peptide recovered from phage library selection on this NCI-60 cell line)
24 | RVEAAVP | – | – | SK-OV-3-3 Ovarian | –
25 | RVGAGAF | – | – | SK-OV-3-3 Ovarian | –
26 | RVGAGWP | – | – | – | BT-549 Breast
27 | RVGRGVL | SF-268 CNS | – | – | –
28 | RVGRLGG | – | A549-Lung | – | –
29 | RVGSVQW | KM-12C Colon | – | – | –
30 | RVGTLRV | – | – | SK-OV-3-3 Ovarian | –
31 | RVMRGSL | – | – | – | MCF-7 Breast
32 | RVPTGVR | – | – | – | SN12C Renal
33 | RVRAVLG | – | – | SK-MEL-28 Melanoma | –
34 | RVRGVLD | – | – | – | BT-549 Breast
35 | RVRSSLA | – | – | – | HS 578 T Breast
36 | RVSGDGK | – | – | SK-OV-3-3 Ovarian | –
37 | RVSGSPV | – | – | – | NCI/ADR-RES Breast
38 | RVSNEAL | – | – | SK-OV-3-3 Ovarian | –
39 | RVSRAGG | – | – | PC3 Prostate | –
40 | RVSSDPI | – | – | SK-OV-3-3 Ovarian | –
41 | RVSSETF | – | – | A498 Renal | –
42 | RVVGAVL | – | – | – | ACHN Renal
43 | RWAGLVA | SF-295 CNS | – | – | –
44 | RWLSLLS | MALME-3M Melanoma | – | – | –
45 | RWRSGRV | HT-29 Colon | – | – | –
46 | RYGTAGS | – | – | – | SN12C Renal

Row | Substance | Cell Line (NCI-60 cell line the peptide is associated with) | Cell Line with which the peptide (and its tripeptide motif) is associated | Cell Line (NCI-60 cell line the peptide and its motif are associated with) | Cell Line the peptide is associated with (peptide recovered from phage library selection on this NCI-60 cell line)
47 | RYGVGGL | HT-29 Colon | – | – | –
48 | RYRVSVY | KM-12C Colon | – | – | –
49 | RYSMASL | – | – | SK-MEL-5 Melanoma | –
50 | RYSTLLR | – | K-562-Leukemia | – | –
51 | SAAGLAR | – | – | SK-OV-3-3 Ovarian | –
52 | SAAGRTF | – | – | SK-MEL-2 Melanoma | –
53 | SAGGWCA | LOX-IMVI Melanoma | – | – | –
54 | SAGLLPS | – | – | OVCAR-5 Ovarian | –
55 | SAGSHPA | – | – | – | SN12C Renal
56 | SAGVSDS | – | – | SK-MEL-2 Melanoma | –
57 | SALRVGL | – | – | – | BT-549 Breast
58 | SARLSHV | – | – | UACC 257 Melanoma | –
59 | SARQGGR | – | – | M14 Melanoma | –
60 | SAVSESP | – | – | SK-OV-3-3 Ovarian | –
61 | SDENGRL | – | HL-60-Leukemia | – | –
62 | SDLGLRR | – | – | DU-145 Prostate | –
63 | SDRGLVV | HCT-15 Colon | – | – | –
64 | SDVSGSS | – | H322-Lung | – | –
65 | SEDEGAG | – | H322-Lung | – | –
66 | SELRSIR | COLO-205-Colon | – | – | –
67 | SEQRGGL | – | – | – | ACHN Renal
68 | SERSSLG | – | Hop-92-Lung | – | –
69 | SFAGRIL | – | – | – | T-47D Breast

Row | Substance | Cell Line (NCI-60 cell line the peptide is associated with) | Cell Line with which the peptide (and its tripeptide motif) is associated | Cell Line (NCI-60 cell line the peptide and its motif are associated with) | Cell Line the peptide is associated with (peptide recovered from phage library selection on this NCI-60 cell line)
70 | SFGVLSG | – | – | – | HS 578 T Breast
71 | SFWWLRS | – | – | – | TK-10 Renal
72 | SGAGAAF | – | – | 786-0 Renal | –
73 | SGAGSVS | – | – | OVCAR-5 Ovarian | –
74 | SGARLRS | – | – | – | T-47D Breast
75 | SGGAVHF | – | SR Leukemia | – | –
76 | SGGDGSV | SNB-75 CNS | – | – | –
77 | SGGGGLG | SF-268 CNS | – | – | –
78 | SGGLAVA | – | – | UACC 257 Melanoma | –
79 | SGGLHEG | – | SR Leukemia | – | –
80 | SGGLVLT | – | Hop-92-Lung | – | –
81 | SGGRFVP | – | – | – | MDA-MB-231 Breast
82 | SGGSVGF | – | – | – | MDA-MB-231 Breast
83 | SGHGVSA | – | H23-Lung | – | –
84 | SGIGSGG | – | Hop-92-Lung | – | –
85 | SGLVAMV | SW620-Colon | – | – | –
86 | SGPAGSF | – | – | OVCAR-4 Ovarian | –
87 | SGPGRLP | – | – | M14 Melanoma | –
88 | SGRLWVG | – | – | – | RXF393 Renal
89 | SGRVFRF | – | – | – | HS 578 T Breast
90 | SGSGCVF | – | – | PC3 Prostate | –
91 | SGSRVSL | – | HL-60-Leukemia | – | –
92 | SGSSVRY | SNB-75 CNS | – | – | –

Row | Substance | Cell Line (NCI-60 cell line the peptide is associated with) | Cell Line with which the peptide (and its tripeptide motif) is associated | Cell Line (NCI-60 cell line the peptide and its motif are associated with) | Cell Line the peptide is associated with (peptide recovered from phage library selection on this NCI-60 cell line)
93 | SGSVNRG | – | RPMI-8226-Leukemia | – | –
94 | SGSVVQR | LOX-IMVI Melanoma | – | – | –
95 | SGVGGRY | – | – | UACC 257 Melanoma | –
96 | SGVGSSL | – | EKVX-Lung | – | –
97 | SGVRLTG | HT-29 Colon | – | – | –
98 | SGVRPVI | – | – | SK-MEL-2 Melanoma | –
99 | SGVSGLS | – | EKVX-Lung | – | –
100 | SGVSISC | – | – | IGROV1 Ovarian | –
101 | SGVSNPG | – | – | – | MDA-MB-231 Breast
102 | SGVSRGQ | – | Hop-92-Lung | – | –
103 | SGVSVEG | – | Hop-62-Lung | – | –
104 | SGWFAGS | – | – | SK-OV-3-3 Ovarian | –
105 | SHCGPSN | SF-295 CNS | – | – | –
106 | SHHRSSI | – | – | – | SN12C Renal
107 | SHRSSTG | – | – | – | T-47D Breast
108 | SHRVSDS | – | K-562-Leukemia | – | –
109 | SHTAGGG | – | – | PC3 Prostate | –
110 | SIGPSTN | – | H460-Lung | – | –
111 | SITRGGL | – | – | DU-145 Prostate | –
112 | SKAVLRS | – | – | SK-MEL-2 Melanoma | –
113 | SKYNLRS | HT-29 Colon | – | – | –
